Test results: patent publication US20120309796A1, “BENZOCYCLOHEPTENE ACETIC ACIDS” (priority 2011, published 2012)

Assays:
human CRTH2 [1] = target: T1, human CRTH2 (Homo sapiens, UniProt Q9Y5Y4); experiment: Calcium Flux Assay Using Fluorometric Imaging Plate Reader (FLIPR); type: cell-based; parameters: expressed in transfected cells; host or cells: CHO-K1 previously transfected with G-alpha 16; conditions: CHO-K1 cells with G-alpha 16 and human CRTH2; inhibition of DK-PGD2 ligand-induced Ca2+ flux
T1 sequence (Q9Y5Y4 1-395): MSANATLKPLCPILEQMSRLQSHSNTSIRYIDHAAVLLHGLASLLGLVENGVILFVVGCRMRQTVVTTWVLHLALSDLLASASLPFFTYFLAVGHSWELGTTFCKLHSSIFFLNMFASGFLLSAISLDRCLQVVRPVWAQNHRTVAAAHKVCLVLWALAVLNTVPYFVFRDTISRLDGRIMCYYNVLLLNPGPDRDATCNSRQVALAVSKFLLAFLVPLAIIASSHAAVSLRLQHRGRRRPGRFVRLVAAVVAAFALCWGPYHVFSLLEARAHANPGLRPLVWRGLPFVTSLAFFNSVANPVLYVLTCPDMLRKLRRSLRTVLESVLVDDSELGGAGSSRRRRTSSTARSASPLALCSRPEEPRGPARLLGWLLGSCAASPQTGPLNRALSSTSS
Description: CHO-K1 cells previously transfected with G-alpha 16 were subsequently transfected with the human CRTH2 receptor and the neomycin resistance gene. Following selection in 800 μg/mL G418 (geneticin), individual clones were assayed for their receptor expression based on staining with an anti human CRTH2 IgG, followed by assaying for their response to 13,14-dihydro-15-keto Prostaglandin D2 (DK-PDG2) (ligand) in the Ca^2+ Flux assay. Positive clones were then cloned by limiting dilution cloning. The transfected cells were cultured in Ham's F-12 medium supplemented with 10% fetal bovine serum, 2 mM glutamine, 100 U/mL penicillin/100 μg/mL streptomycin, 200 μg/mL hygromycin B, and 800 μg/mL G418 (geneticin). Cells were harvested with trypsin-EDTA (trypsin-ethylenediaminetetraacetic acid) and counted using ViaCount® reagent (from Guava Technologies, Inc. which contains two DNA-binding dyes that enable the reagent user to distinguish between viable and non-viable cells). The cell suspension volume was adjusted to 2.5×10^5 cells/mL with complete growth media. Aliquots of 50 μL were dispensed into BD Falcon™ 384 well black/clear microplates (from BD Biosciences, a division of Becton, Dickinson and Company) and the microplates were placed in a 37° C. CO2 incubator overnight. The following day, the microplates were used in the assay.
Loading Buffer containing dye (from the FLIPR® Calcium 3 Assay Kit from Molecular Devices, a division of MDS Analytical Technologies and MDS Inc.) was prepared by dissolving the contents of one bottle into 200 mL Hank's Balanced Salt Solution containing 20 mM HEPES (4-(2-hydroxyethyl)-1-piperazineethanesulfonic acid) and 2.5 mM probenecid. Growth media was removed from the cell plates and 25 μL of Hank's Balanced Salt Solution (HBSS) containing 20 mM HEPES, 0.05% BSA and 2.5 mM probenecid was added to each well followed by 25 μL of diluted dye using a Multidrop dispenser. The plates were then incubated for 1 hour at 37° C.
During the incubation, test compound plates were prepared by adding 90 μL of HBSS/20 mM HEPES/0.005% BSA buffer to the 2 μL of serial diluted compounds. To prepare serial diluted compounds, 20 mM stocks of compounds were dissolved in 100% DMSO. The compound dilution plate was set up as follows: well #1 received 5 μL of compound plus 10 μL of DMSO. Wells 2-10 received 10 μL of DMSO. 5 μL was mixed and transferred from well #1 into well #2. 1:3 serial dilutions were continued out 10 steps. 2 μl of diluted compound was transferred into duplicate wells of a 384 well “assay plate” and then 90 μL of buffer was added.
After incubation, both the cell and “assay plate” plates were brought to the fluorometric imaging plate reader (FLIPR®) and 20 μL of the diluted compounds were transferred to the cell plates by the FLIPR®. Plates were then incubated for 1 hour at room temperature. After the 1 hour incubation, plates were returned to the FLIPR® and 20 μL of 4.5× concentrated ligand was added to the cell plates. During the assay, fluorescence readings were taken simultaneously from all 384 wells of the cell plate every 1.5 seconds. Five readings were taken to establish a stable baseline, then 20 μL of sample was rapidly (30 μL/sec) and simultaneously added to each well of the cell plate. The fluorescence was continuously monitored before, during and after sample addition for a total elapsed time of 100 seconds. Responses (increase in peak fluorescence) in each well following agonist addition were determined. The initial fluorescence reading from each well, prior to ligand stimulation, was used as a zero baseline value for the data from that well. The responses were expressed as % inhibition of the buffer control. […]

human CRTH2 [2] = target: T1, human CRTH2; experiment: Human CRTH2 Receptor Binding Assay (whole cell, [3H]ramatroban competition); parameters: two mammalian expression vectors that harbored human CRTH2 and G-alpha16 cDNAs; expressed in transfected cells; conditions: CHO-K1 cells expressing human CRTH2 and G-alpha16; 20 nM [3H]ramatroban; 1 hour, room temperature
Source text: A whole cell receptor binding assay using [^3H]ramatroban as the competing radioactive ligand was employed to evaluate the compound binding activity to human CRTH2. The radioactive ligand [^3H]ramatroban was synthesized according to Sugimoto et. al. (Eur. J. Pharmacol. 2005, 524, 30-37) to a specific activity of 42 Ci/mmol
A cell line stably expressing human CRTH2 was established by transfecting CHO-K1 cells with two mammalian expression vectors that harbored human CRTH2 and G-alpha16 cDNAs, respectively, using FuGene® 6 transfection reagent (from Roche). Stable clones expressing CRTH2 were selected by staining each clone with BM16 (BD Pharmingen™ from BD Biosciences, a division of Becton, Dickinson and Company), which is a rat monoclonal antibody to human CRTH2. The cells were maintained as monolayer cultures in Ham's F-12 medium containing 10% fetal bovine serum, 100 units/mL penicillin, 100 μg/mL streptomycin, 2 mM glutamine, 0.5 mg/mL G418 (geneticin) for CRTH2, and 0.2 mg/mL hygromycin-B (for G-alpha 16). For whole cell receptor binding assay, the monolayer cells were rinsed once with PBS (phosphate buffered saline), dissociated using ethylenediaminetetraacetate (Versene™ EDTA from Lonza Inc.), and suspended in PBS containing 10 mM MgCl2 and 0.06% BSA (bovine serum albumin) at 1.5×10^6 cells/mL.
The binding reactions (0.2 mL) were performed in 96-well plates at room temperature in PBS containing 1.5×10^5 cells, 10 mM MgCl2, 0.06% BSA, 20 nM [^3H]ramatroban, and test compound at various concentrations. After 1 hour of binding reactions, the cells were harvested on GF™/B filter microplates (microtiter plates with embedded glass fiber from PerkinElmer, Inc.) and washed 5 times with PBS using a Filtermate™ Harvester (a cell harvester that harvests and washes cells from microplates from PerkinElmer, Inc.). The radioactivities bound to the cells were determined using a microplate scintillation counter (TopCount® NXT, from PerkinElmer, Inc.) after adding 50 μL of Microscint™ 20 scintillation fluid (from PerkinElmer, Inc.) to each well of the filter plates. The radioactivity from non-specific binding was determined by replacing compound with 10 μM of 15(R)-15-methyl PGD2 (from Cayman Chemical Company) in the reaction mixtures. The radioactivity bound to the cells in the absence of compound (total binding) was determined by replacing compound with 0.25% of DMSO (dimethyl sulfoxide) in the reaction mixture. Specific binding data were obtained by subtracting the radioactivity of non-specific binding from each binding data.
The IC50 value is defined as the concentration of the tested compound that is required for 50% inhibition of total specific binding. In order to calculate the IC50 value, the percent inhibition data were determined for 7 concentrations for each compound. The percent inhibition for a compound at each concentration was calculated according to the following formula, [1-(specific binding in the presence of compound)/(total specific binding)]×100. The IC50 value was then obtained by fitting the percent inhibition data to a sigmoidal dose-response (4 parameter logistic) model in the XLfit® software Excel add-in program [from ID Business Solutions Ltd., model 205, where F(x)=(A+(B−A)/(1+((C/x)̂D)))].

| Compound | IC50 (human CRTH2 [1]) [nM] | IC50 (human CRTH2 [2]) [nM] |
| --- | --- | --- |
| CC(C)c1cccc(-c2ccc(S(=O)(=O)NC3CCCCc4c(OCC(=O)O)cccc43)nc2)c1 (centres unmarked) [Example 31, {5-[5-(3-Isopropyl-phenyl)-pyridine-2-sulfonylamino]-6,7,8,9-tetrahydro-5H-benzocyclohepten-1-yloxy}-acetic acid] | 476 | 26.7 |
| Cc1cncc(-c2ccc(S(=O)(=O)NC3CCCCc4c(OCC(=O)O)cccc43)cc2)c1 (centres unmarked) [Example 25, {5-[4-(5-Methyl-pyridin-3-yl)-benzenesulfonylamino]-6,7,8,9-tetrahydro-5H-benzocyclohepten-1-yloxy}-acetic acid] | 123 | 33.7 |
| O=C(O)COc1cccc2c1CCCCC2NS(=O)(=O)c1ccc(-c2ccccc2)cc1 (centres unmarked) [Example 4, [5-(Biphenyl-4-sulfonylamino)-6,7,8,9-tetrahydro-5H-benzocyclohepten-1-yloxy]-acetic acid] | 255 | 33.6 |

The remaining molecules from weak to strong by IC50 (human CRTH2 [1]), led by results:

| IC50 (human CRTH2 [1]) [nM] | IC50 (human CRTH2 [2]) [nM] | Compound |
| --- | --- | --- |
| 4310 | 457 | CN(C1CCCCc2c(OCC(=O)O)cccc21)S(=O)(=O)c1ccc(-c2cccc(C(F)(F)F)c2)cn1 (centres unmarked) [Example 34, (5-{Methyl-[5-(3-trifluoromethyl-phenyl)-pyridine-2-sulfonyl]-amino}-6,7,8,9-tetrahydro-5H-benzocyclohepten-1-yloxy)-acetic acid] |
| 581 | 952 | CS(=O)(=O)c1cccc(S(=O)(=O)NC2CCCCc3c(OCC(=O)O)cccc32)c1 (centres unmarked) [Example 5, [5-(3-Methanesulfonyl-benzenesulfonylamino)-6,7,8,9-tetrahydro-5H-benzocyclohepten-1-yloxy]-acetic acid] |
| 214 | 17 | O=C(O)COc1cccc2c1CCCCC2NS(=O)(=O)c1ccc(-c2cccc(CCO)c2)cn1 (centres unmarked) [Example 37, (5-{5-[3-(2-Hydroxy-ethyl)-phenyl]-pyridine-2-sulfonylamino}-6,7,8,9-tetrahydro-5H-benzocyclohepten-1-yloxy)-acetic acid] |
| 60.6 | 9.1 | CS(=O)(=O)c1cccc(-c2ccc(S(=O)(=O)NC3CCCCc4c(OCC(=O)O)cccc43)cc2)c1 (centres unmarked) [Example 29, [5-(3′-Methanesulfonyl-biphenyl-4-sulfonylamino)-6,7,8,9-tetrahydro-5H-benzocyclohepten-1-yloxy]-acetic acid] |
